In PubChem BioAssay (NCI):
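Following 48 hours of exposure in 96-well plates, responses at five concentrations were used to interpolate endpoints linearly. At the TGI there is no net growth.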

Tests used:
Assay in all cases: NCI anticancer screen, dose series, 48 h
ACHN renal = tested on: ACHN renal
COLO 205 colon = tested on: COLO 205 colon
TK-10 renal = tested on: TK-10 renal
SW-620 colon = tested on: SW-620 colon
NCI-H226 lung = tested on: NCI-H226 lung
786-0 renal = tested on: 786-0 renal
SF-295 CNS = tested on: SF-295 CNS
SK-MEL-28 melanoma = tested on: SK-MEL-28 melanoma
SNB-19 CNS = tested on: SNB-19 CNS
A549 NSCLC = tested on: A549 NSCLC

For COc1ccc2c(c1)Cc1c-2[nH]c2cc3c(cc2c1=O)OCO3, the TGI (ACHN renal) was 30.5 µM, the TGI (COLO 205 colon) was 25.5 µM and the TGI (TK-10 renal) was 83.3 µM. The TGI (SW-620 colon) was greater than 100 µM, the TGI (NCI-H226 lung) was 94.3 µM and the TGI (786-0 renal) was greater than 100 µM. For the same compound, the TGI (SF-295 CNS) was 51.7 µM, the TGI (SK-MEL-28 melanoma) was 53.8 µM and the TGI (SNB-19 CNS) was greater than 100 µM. For the same compound, the TGI (A549 NSCLC) was greater than 100 µM.
O=C(OCc1c(-c2ccccc2)nn(-c2ccccc2)c1COC(=O)Oc1ccccc1)Oc1ccccc1 was tested, and the TGI (ACHN renal) was greater than 100 µM, the TGI (COLO 205 colon) was greater than 100 µM and the TGI (TK-10 renal) was greater than 100 µM. The TGI (SW-620 colon) was greater than 100 µM, the TGI (NCI-H226 lung) was greater than 100 µM and the TGI (786-0 renal) was greater than 100 µM. The TGI (SF-295 CNS) was greater than 100 µM, the TGI (SK-MEL-28 melanoma) was greater than 100 µM and the TGI (SNB-19 CNS) was greater than 100 µM. For the same compound, the TGI (A549 NSCLC) was greater than 100 µM.
COC(=O)C1=C2Nc3ccccc3C23CCN2C(O)C4(CC5CC67CCOC6CCN6CCC8(c9cccc(OC)c9N(C4)C58O)C67)C4OCCC4(C1)C23 (stereo not given) was tested, and the TGI (ACHN renal) was greater than 100 µM, the TGI (COLO 205 colon) was greater than 100 µM and the TGI (TK-10 renal) was greater than 100 µM. The TGI (SW-620 colon) was greater than 100 µM, the TGI (NCI-H226 lung) was greater than 100 µM and the TGI (786-0 renal) was 50.5 µM. For the same compound, the TGI (SF-295 CNS) was greater than 100 µM, the TGI (SK-MEL-28 melanoma) was greater than 100 µM and the TGI (SNB-19 CNS) was greater than 100 µM. It also gave a TGI (A549 NSCLC) greater than 100 µM.
For CC(C)=CCC[C@@H](C)C1=C(O)C(Nc2ccccc2F)=C(C)C(=O)C1=O, the TGI (ACHN renal) was 49.5 µM, the TGI (COLO 205 colon) was greater than 68.9 µM and the TGI (TK-10 renal) was greater than 100 µM. For the same compound, the TGI (SW-620 colon) was greater than 100 µM, the TGI (NCI-H226 lung) was greater than 78.7 µM and the TGI (786-0 renal) was greater than 100 µM. It also gave a TGI (SF-295 CNS) of 30.4 µM, a TGI (SK-MEL-28 melanoma) greater than 100 µM and a TGI (SNB-19 CNS) greater than 100 µM. The TGI (A549 NSCLC) was greater than 77.5 µM.
CCN(CC)CCNc1ccc2nnn3c4ccc(OC(C)=O)cc4c(=O)c1c23 was tested, and the TGI (ACHN renal) was 12.9 µM, the TGI (COLO 205 colon) was 14.6 µM and the TGI (TK-10 renal) was 16.7 µM. For the same compound, the TGI (SW-620 colon) was 13.6 µM, the TGI (NCI-H226 lung) was 7.62 µM and the TGI (786-0 renal) was greater than 38.1 µM. It also gave a TGI (SF-295 CNS) of 19.3 µM, a TGI (SK-MEL-28 melanoma) of 26.3 µM and a TGI (SNB-19 CNS) greater than 43.2 µM. It also gave a TGI (A549 NSCLC) greater than 40.6 µM.
COC(=O)C(Cc1ccccc1)NC(=O)C(CCCN=C(N)N)NC(=O)OCc1ccccc1 (stereo not given) gave a TGI (ACHN renal) greater than 100 µM, a TGI (COLO 205 colon) greater than 100 µM and a TGI (TK-10 renal) greater than 100 µM. For the same compound, the TGI (SW-620 colon) was greater than 100 µM, the TGI (NCI-H226 lung) was greater than 100 µM and the TGI (786-0 renal) was greater than 100 µM. It also gave a TGI (SF-295 CNS) greater than 100 µM, a TGI (SK-MEL-28 melanoma) greater than 100 µM and a TGI (SNB-19 CNS) greater than 100 µM. The TGI (A549 NSCLC) was greater than 100 µM.
CC(=O)C1C(=O)C(=O)N(c2ccc([N+](=O)[O-])cc2Cl)C1=O (stereo not given) showed a TGI (ACHN renal) greater than 100 µM, a TGI (COLO 205 colon) greater than 100 µM and a TGI (TK-10 renal) greater than 100 µM. For the same compound, the TGI (SW-620 colon) was greater than 100 µM, the TGI (NCI-H226 lung) was greater than 100 µM and the TGI (786-0 renal) was greater than 100 µM. For the same compound, the TGI (SF-295 CNS) was greater than 100 µM, the TGI (SK-MEL-28 melanoma) was greater than 100 µM and the TGI (SNB-19 CNS) was greater than 100 µM. It also gave a TGI (A549 NSCLC) greater than 100 µM.
CC(=N\N=C\c1ccccn1)/C(C)=N/N=C/c1ccccn1 was tested, and the TGI (ACHN renal) was greater than 100 µM, the TGI (COLO 205 colon) was greater than 100 µM and the TGI (TK-10 renal) was greater than 100 µM. It also gave a TGI (SW-620 colon) greater than 100 µM, a TGI (NCI-H226 lung) greater than 100 µM and a TGI (786-0 renal) greater than 100 µM. It also gave a TGI (SF-295 CNS) greater than 100 µM, a TGI (SK-MEL-28 melanoma) greater than 100 µM and a TGI (SNB-19 CNS) greater than 100 µM. The TGI (A549 NSCLC) was greater than 100 µM.
Work on CC(=O)O[C@@H]1CC2[C@@H](CCC3Cc4nc5c(nc4C[C@@]32C)CC2CC[C@@H]3C(CC[C@@]4(C)C3CC[C@@H]4C(C)CCCC(C)C)[C@@]2(C)C5)C2C[C@@H]3OC4(CCC(C)CO4)C(C)[C@@H]3[C@]21C (stereo not given in full) yielded a TGI (ACHN renal) greater than 100 µM, a TGI (COLO 205 colon) greater than 100 µM and a TGI (TK-10 renal) greater than 100 µM. It also gave a TGI (SW-620 colon) greater than 100 µM, a TGI (NCI-H226 lung) of 87.1 µM and a TGI (786-0 renal) greater than 100 µM. For the same compound, the TGI (SF-295 CNS) was greater than 100 µM, the TGI (SK-MEL-28 melanoma) was greater than 100 µM and the TGI (SNB-19 CNS) was greater than 100 µM. The TGI (A549 NSCLC) was greater than 100 µM.
CN(C)C(=O)CO/N=C1/C(c2c(O)[nH]c3ccccc23)=Nc2ccccc21 was tested, and the TGI (ACHN renal) was greater than 100 µM, the TGI (COLO 205 colon) was greater than 100 µM and the TGI (TK-10 renal) was greater than 100 µM. For the same compound, the TGI (SW-620 colon) was greater than 100 µM, the TGI (NCI-H226 lung) was greater than 100 µM and the TGI (786-0 renal) was greater than 100 µM. The TGI (SF-295 CNS) was greater than 100 µM, the TGI (SK-MEL-28 melanoma) was greater than 100 µM and the TGI (SNB-19 CNS) was greater than 100 µM. The TGI (A549 NSCLC) was greater than 100 µM.
For CCOC(=O)c1ccc2c(=O)n3c(C(=O)OCC)ccc3c(=O)n12, the TGI (ACHN renal) was greater than 100 µM, the TGI (COLO 205 colon) was greater than 100 µM and the TGI (TK-10 renal) was greater than 100 µM. It also gave a TGI (SW-620 colon) greater than 100 µM, a TGI (NCI-H226 lung) greater than 100 µM and a TGI (786-0 renal) greater than 100 µM. For the same compound, the TGI (SF-295 CNS) was greater than 100 µM, the TGI (SK-MEL-28 melanoma) was greater than 100 µM and the TGI (SNB-19 CNS) was greater than 100 µM. For the same compound, the TGI (A549 NSCLC) was greater than 100 µM.
Compound CC1=NN(c2cccc(Cl)c2)C2(C1)SCC(=O)N2c1nc2ccccc2s1 (stereo not given) has a TGI (ACHN renal) of 79.9 µM, a TGI (COLO 205 colon) of 32.5 µM and a TGI (TK-10 renal) of 74.1 µM. For the same compound, the TGI (SW-620 colon) was greater than 100 µM, the TGI (NCI-H226 lung) was 37.1 µM and the TGI (786-0 renal) was 56.1 µM. The TGI (SF-295 CNS) was 74.9 µM, the TGI (SK-MEL-28 melanoma) was greater than 100 µM and the TGI (SNB-19 CNS) was greater than 100 µM. It also gave a TGI (A549 NSCLC) greater than 100 µM.
CCOc1ccc(-n2c(=O)n3c(Nc4ccc(Cl)cc4)nc4c(c(=O)n(C)c(=O)n4C)n3c2=O)cc1 gave a TGI (ACHN renal) greater than 100 µM, a TGI (COLO 205 colon) of 46.4 µM and a TGI (TK-10 renal) of 66 µM. For the same compound, the TGI (SW-620 colon) was 99.2 µM, the TGI (NCI-H226 lung) was 74.5 µM and the TGI (786-0 renal) was greater than 100 µM. For the same compound, the TGI (SF-295 CNS) was greater than 100 µM, the TGI (SK-MEL-28 melanoma) was 65.3 µM and the TGI (SNB-19 CNS) was greater than 100 µM. For the same compound, the TGI (A549 NSCLC) was greater than 100 µM.
In the case of Cn1c2cc(Cl)ccc2c2ccc3c(c21)C(=O)C=CC3=O, the TGI (ACHN renal) is reported as 40.9 µM, the TGI (COLO 205 colon) is reported as 20.7 µM and the TGI (TK-10 renal) is reported as 56.6 µM. It also gave a TGI (SW-620 colon) of 17.9 µM, a TGI (NCI-H226 lung) greater than 100 µM and a TGI (786-0 renal) greater than 55.9 µM. The TGI (SF-295 CNS) was greater than 100 µM, the TGI (SK-MEL-28 melanoma) was 63.5 µM and the TGI (SNB-19 CNS) was greater than 100 µM. It also gave a TGI (A549 NSCLC) greater than 100 µM.
In the case of CCN(CC)CCNC(=O)c1cc2cc(NC(=O)c3cc4cc(NC(=O)c5cc6cc([N+](=O)[O-])ccc6[nH]5)ccc4[nH]3)ccc2[nH]1, the TGI (ACHN renal) is reported as greater than 100 µM, the TGI (COLO 205 colon) is reported as greater than 100 µM and the TGI (TK-10 renal) is reported as greater than 100 µM. It also gave a TGI (SW-620 colon) greater than 100 µM, a TGI (NCI-H226 lung) greater than 100 µM and a TGI (786-0 renal) greater than 100 µM. It also gave a TGI (SF-295 CNS) greater than 100 µM, a TGI (SK-MEL-28 melanoma) greater than 100 µM and a TGI (SNB-19 CNS) greater than 100 µM. For the same compound, the TGI (A549 NSCLC) was greater than 100 µM.
OC1NC2CC3NC(O)C(O)NC3CC2NC1O (stereo not given) was tested, and the TGI (ACHN renal) was greater than 100 µM, the TGI (COLO 205 colon) was greater than 100 µM and the TGI (TK-10 renal) was greater than 100 µM. For the same compound, the TGI (SW-620 colon) was greater than 100 µM, the TGI (NCI-H226 lung) was greater than 100 µM and the TGI (786-0 renal) was greater than 100 µM. For the same compound, the TGI (SF-295 CNS) was greater than 100 µM, the TGI (SK-MEL-28 melanoma) was greater than 100 µM and the TGI (SNB-19 CNS) was greater than 100 µM. For the same compound, the TGI (A549 NSCLC) was greater than 100 µM.
Compound N#CCCCCC12C3C(=O)N(c4ccccc4)C(=O)C3ON1O[C@@H]1C(=O)N(c3ccccc3)C(=O)[C@@H]12 (stereo not given in full) has a TGI (ACHN renal) greater than 100 µM, a TGI (COLO 205 colon) greater than 100 µM and a TGI (TK-10 renal) greater than 100 µM. The TGI (SW-620 colon) was greater than 100 µM, the TGI (NCI-H226 lung) was greater than 100 µM and the TGI (786-0 renal) was greater than 100 µM. For the same compound, the TGI (SF-295 CNS) was greater than 100 µM, the TGI (SK-MEL-28 melanoma) was greater than 100 µM and the TGI (SNB-19 CNS) was greater than 100 µM. For the same compound, the TGI (A549 NSCLC) was greater than 100 µM.
CS(=O)(=O)OC1CCN(C2(c3cccc(O)c3)CCCCC2)CC1 was tested, and the TGI (ACHN renal) was greater than 100 µM, the TGI (COLO 205 colon) was greater than 100 µM and the TGI (TK-10 renal) was greater than 100 µM. It also gave a TGI (SW-620 colon) greater than 100 µM, a TGI (NCI-H226 lung) greater than 100 µM and a TGI (786-0 renal) of 92.4 µM. For the same compound, the TGI (SF-295 CNS) was greater than 100 µM, the TGI (SK-MEL-28 melanoma) was greater than 100 µM and the TGI (SNB-19 CNS) was greater than 100 µM. For the same compound, the TGI (A549 NSCLC) was greater than 100 µM.
